According to the supplement of paper PMC10307832:

Legend:
Assay in all cases: relative viability (nuclei count vs DMSO), 5 days (fraction); higher = more cells survive
XMD8-85 + Bortezomib = compound: CN1CCN(CC1)C2=CC(=C(C=C2)NC3=NC=C4C(=N3)N(C5=CC=CC=C5C(=O)N4C)C)OC [XMD8-85] + CC(C)C[C@H](NC(=O)[C@H](Cc1ccccc1)NC(=O)c1cnccn1)B(O)O [Bortezomib] (partner 0.002 µM)
Summary of the method: (§1)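 Relative viability equals treated-well nuclei counts divided by vehicle-well nuclei counts. Counts came from 4× images of lung cancer cell lines grown in 1536-well plates for 5 days after pin-tool dosing on the day after seeding. Dosing used one drug alone or a fixed anchor-drug dose plus five library-drug doses (not always all listed) in √10 steps, and values are medians of duplicate plates.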

XMD8-85 + Pictilisib = compound: CN1CCN(CC1)C2=CC(=C(C=C2)NC3=NC=C4C(=N3)N(C5=CC=CC=C5C(=O)N4C)C)OC [XMD8-85] + CS(=O)(=O)N1CCN(Cc2cc3nc(-c4cccc5[nH]ncc45)nc(N4CCOCC4)c3s2)CC1 [Pictilisib] (partner 1 µM)
Summary of the method: as §1

XMD8-85 + Olaparib = compound: CN1CCN(CC1)C2=CC(=C(C=C2)NC3=NC=C4C(=N3)N(C5=CC=CC=C5C(=O)N4C)C)OC [XMD8-85] + O=C(c1cc(Cc2n[nH]c(=O)c3ccccc23)ccc1F)N1CCN(C(=O)C2CC2)CC1 [Olaparib] (partner 8 µM)
Summary of the method: as §1

4EGI-1 + Dasatinib = compound: O=C(O)C(Cc1ccccc1[N+](=O)[O-])=NNc1nc(-c2ccc(Cl)c(Cl)c2)cs1 (mixture of isomers) [4EGI-1] + Cc1nc(Nc2ncc(C(=O)Nc3c(C)cccc3Cl)s2)cc(N2CCN(CCO)CC2)n1 [Dasatinib] (partner 0.075 µM)
Summary of the method: as §1

Cell Line | relative viability (XMD8-85 + Bortezomib; first compound 0.08 µM) | relative viability (XMD8-85 + Bortezomib; first compound 0.253 µM) | relative viability (XMD8-85 + Bortezomib; first compound 0.8 µM) | relative viability (XMD8-85 + Bortezomib; first compound 2.53 µM) | relative viability (XMD8-85 + Bortezomib; first compound 8 µM) | relative viability (XMD8-85 + Pictilisib; first compound 0.08 µM) | relative viability (XMD8-85 + Pictilisib; first compound 0.253 µM) | relative viability (XMD8-85 + Pictilisib; first compound 0.8 µM) | relative viability (XMD8-85 + Pictilisib; first compound 2.53 µM) | relative viability (XMD8-85 + Pictilisib; first compound 8 µM) | relative viability (XMD8-85 + Olaparib; first compound 0.08 µM) | relative viability (XMD8-85 + Olaparib; first compound 0.253 µM) | relative viability (XMD8-85 + Olaparib; first compound 0.8 µM) | relative viability (XMD8-85 + Olaparib; first compound 2.53 µM) | relative viability (XMD8-85 + Olaparib; first compound 8 µM) | relative viability (4EGI-1 + Dasatinib; first compound 0.5 µM) | relative viability (4EGI-1 + Dasatinib; first compound 1.581 µM) | relative viability (4EGI-1 + Dasatinib; first compound 5 µM) | relative viability (4EGI-1 + Dasatinib; first compound 15.81 µM) | relative viability (4EGI-1 + Dasatinib; first compound 50 µM)
NCI-H1755 | 0.97 | 1.14 | 0.918 | 1.06 | 0.806 | 0.369 | 0.426 | 0.448 | 0.552 | 0.357 | 0.974 | 0.906 | 0.862 | 0.85 | 0.899 | 0.503 | 0.428 | 0.424 | 0.412 | 0.288
NCI-H2405 | 1.01 | 0.983 | 0.975 | 1.02 | 0.927 | 0.388 | 0.528 | 0.402 | 0.373 | 0.303 | 0.908 | 0.919 | 0.949 | 0.859 | 0.817 | 0.204 | 0.228 | 0.225 | 0.211 | 0.172
SK-LU-1 | 0.93 | 0.926 |  | 1.42 | 0.84 | 0.397 |  | 0.569 | 0.6 | 0.522 | 0.482 | 0.509 |  | 0.417 | 0.391 | 0.189 | 0.186 | 0.178 | 0.198 | 0.185
PC-14 | 0.794 | 0.964 | 0.821 | 0.935 | 0.596 | 0.618 | 0.521 | 0.661 | 0.681 | 0.462 | 0.253 | 0.213 | 0.229 | 0.237 | 0.14 | 0.342 |  | 0.297 | 0.0363 | 0.0488
LCLC-103H | 1.07 | 1.23 | 1.03 | 1.05 | 1.01 | 0.606 | 0.615 | 0.66 | 0.598 | 0.462 | 0.84 | 0.759 | 0.768 | 0.793 | 0.665 | 0.531 | 0.503 | 0.503 | 0.523 | 0.236
NCI-H2009 | 0.98 | 0.931 | 1.16 | 0.988 | 0.352 | 0.753 | 0.722 | 0.892 | 0.653 | 0.364 | 0.776 | 0.748 | 0.779 | 0.544 | 0.268 | 0.344 | 0.302 | 0.312 | 0.269 | 0.146
NCI-H596 | 0.838 | 0.903 | 1.22 | 1.09 | 0.899 | 0.392 | 0.396 | 0.359 | 0.397 | 0.354 | 0.696 | 0.602 | 0.702 | 0.49 | 0.467 | 0.714 | 0.566 | 0.584 | 0.582 | 0.491
HARA | 1.08 | 1.01 | 1.26 | 1.16 | 0.866 | 0.47 | 0.473 | 0.455 | 0.436 | 0.259 | 1.28 | 0.581 | 0.698 | 0.387 | 0.399 | 0.273 | 0.319 | 0.283 | 0.206 | 0.218
UMC-11 | 0.538 | 0.577 | 0.903 | 0.852 | 0.373 | 0.696 | 0.757 | 0.922 | 0.796 | 0.513 | 0.475 | 0.358 | 0.389 | 0.325 | 0.231 | 0.502 | 0.462 | 0.406 | 0.415 | 0.208
NCI-H460 | 0.924 | 0.999 | 1.2 | 0.956 | 0.75 | 0.341 | 0.356 | 0.405 | 0.333 | 0.156 | 0.284 | 0.448 | 0.435 | 0.35 | 0.213 | 0.447 |  | 0.515 | 0.307 | 0.0847
NCI-H322M | 1.36 | 1.22 | 1.3 | 1.46 | 1.04 | 0.551 | 0.501 | 0.502 | 0.527 | 0.409 | 0.912 | 0.795 | 0.899 | 0.71 | 0.647 | 0.23 |  | 0.243 | 0.237 | 0.256
NCI-H1734 | 0.808 | 0.936 | 0.917 | 1.03 | 0.649 | 0.45 | 0.397 | 0.477 | 0.502 | 0.475 | 0.672 | 0.616 | 0.629 |  | 0.508 | 0.562 | 0.415 | 0.46 | 0.396 | 0.218
HCC-15 | 0.948 | 1 | 1.14 | 1.15 | 0.926 | 0.684 | 0.691 | 0.76 | 0.728 | 0.616 | 0.745 | 0.67 | 0.7 | 0.699 | 0.64 | 0.642 |  | 0.612 | 0.511 | 0.308
NCI-H1651 | 1.08 | 0.946 | 0.882 | 0.903 | 0.875 | 0.527 | 0.454 | 0.584 | 0.534 | 0.44 | 0.166 | 0.19 | 0.181 | 0.172 | 0.16 | 0.36 | 0.377 | 0.44 | 0.346 | 0.174
LOU-NH91 | 0.448 | 0.466 | 0.488 | 0.489 | 0.4 | 0.52 | 0.566 | 0.526 | 0.516 | 0.471 | 0.944 | 0.922 | 0.917 | 0.92 | 0.695 | 0.569 |  | 0.505 | 0.378 | 0.458
NCI-H3122 | 1.11 | 1.02 | 1.05 | 1.05 | 0.915 | 0.687 | 0.573 | 0.649 | 0.646 | 0.611 | 0.574 | 0.673 | 0.691 | 0.762 | 0.676 | 0.967 | 0.739 | 0.881 | 0.841 | 0.239
EPLC-272H |  | 0.831 | 0.928 | 0.814 | 0.571 |  | 0.324 | 0.318 | 0.327 | 0.267 | 0.853 | 0.579 | 0.747 | 0.458 | 0.387 | 0.504 |  | 0.34 | 0.252 | 0.138
PC-3 [JPC-3] | 0.701 | 0.824 | 0.736 | 0.968 | 0.732 | 0.717 | 0.666 | 0.766 | 0.879 | 0.672 | 1.11 | 1.22 | 1.25 | 1.16 | 0.978 | 1.03 | 0.978 | 0.893 |  | 0.937
SW 1573 | 0.881 | 1.34 | 1.02 | 1.03 | 0.639 | 0.574 | 0.523 | 0.591 | 0.487 | 0.357 | 0.496 | 0.48 | 0.546 |  | 0.341 | 0.7 | 0.254 | 0.593 | 0.234 | 0.0967
NCI-H520 | 0.491 | 0.51 | 0.772 | 0.507 | 0.205 | 0.222 | 0.271 | 0.295 | 0.248 | 0.231 | 0.343 | 0.366 | 0.293 | 0.305 | 0.236 | 0.204 | 0.276 | 0.187 | 0.215 | 0.153
RERF-LC-KJ | 0.937 | 1.07 | 1.06 | 1.2 | 0.742 | 0.504 | 0.444 | 0.524 | 0.603 | 0.412 | 1.05 | 0.927 | 0.929 | 0.872 | 0.769 | 0.999 |  | 0.641 | 0.496 | 0.266
NCI-H2085 | 0.92 | 1.03 | 1.18 | 0.95 |  | 0.378 | 0.427 | 0.467 | 0.436 | 0.445 | 0.729 | 0.743 | 0.77 | 0.725 | 0.699 | 0.318 | 0.229 | 0.272 | 0.216 | 0.271
ChaGo-K-1 | 0.905 | 1.07 | 1.18 | 1.37 | 0.357 | 0.808 | 0.692 | 0.689 | 0.697 | 0.303 | 0.409 | 0.43 | 0.409 | 0.433 | 0.347 | 0.661 | 0.629 | 0.639 | 0.48 | 0.25
NCI-H1650 | 0.26 | 0.197 | 0.192 | 0.173 | 0.179 | 0.508 | 0.501 | 0.64 | 0.539 | 0.226 | 0.877 | 0.91 | 0.951 | 0.699 | 0.303 | 0.307 |  | 0.364 | 0.219 | 0.136
NCI-H661 | 0.732 | 0.927 |  | 0.802 | 0.728 | 0.406 | 0.419 | 0.412 | 0.366 | 0.357 | 0.798 | 0.795 | 0.768 | 0.854 | 0.525 | 1.2 | 0.831 | 0.785 | 0.517 | 0.262
NCI-H2228 | 1.15 | 0.872 | 0.924 | 1.04 | 0.582 | 0.469 | 0.353 | 0.202 | 0.363 | 0.247 | 0.629 | 0.338 | 0.649 | 0.655 | 0.331 | 0.472 | 0.653 | 0.496 | 0.552 | 0.13
CAL-12T | 0.979 | 0.95 | 0.864 | 0.964 | 0.584 | 0.396 | 0.541 | 0.393 | 0.395 | 0.321 | 0.704 | 0.721 | 0.776 | 0.628 | 0.583 | 0.504 | 0.206 | 0.449 | 0.297 | 0.0969
